Assay results as given in patent publication US20260070945A1, “MACROCYCLIC IMMUNOMODULATORS” (Bristol-Myers Squibb Company, priority 2022, published 2026).
*1 amine or outer side, *2 acyl side, *3 side chain or, on linkers, in order; H or OH if unused. Where a SMILES comes first, the peptide text is derived from it. Bridges are numbered along the chain shown (N, C = ends). [ ]: non-standard residue; d: D form. The star is where a group is joined. X8 = O=C(O)COc1ccc(C[C@H](N[*:1])C(=O)[*:2])cn1; Phe(4-COOH) = N[C@@H](Cc1ccc(C(=O)O)cc1)C(=O)O; Bip = N[C@@H](Cc1ccc(-c2ccccc2)cc1)C(=O)O; 4Pal = N[C@@H](Cc1ccncc1)C(=O)O; Cha = N[C@@H](CC1CCCCC1)C(=O)O; Cit = NC(=O)NCCC[C@H](N)C(=O)O; Carboxymethyl = O=C(O)C*; NMeA = CN[C@@H](C)C(=O)O; Orn = NCCC[C@H](N)C(=O)O; Aun = NCCCCCCCCCCC(=O)O; Dab = NCC[C@H](N)C(=O)O; Dap = NC[C@H](N)C(=O)O

Target: T1, PD-1/PD-L1 interaction (PE-labeled human PD-L1-Ig binding to Jurkat cell line over-expressing human PD-1) (Homo sapiens, UniProt Q15116)
T1 construct: expressed in transfected cells; host or cells: Jurkat
T1 sequence (Q15116 25-288): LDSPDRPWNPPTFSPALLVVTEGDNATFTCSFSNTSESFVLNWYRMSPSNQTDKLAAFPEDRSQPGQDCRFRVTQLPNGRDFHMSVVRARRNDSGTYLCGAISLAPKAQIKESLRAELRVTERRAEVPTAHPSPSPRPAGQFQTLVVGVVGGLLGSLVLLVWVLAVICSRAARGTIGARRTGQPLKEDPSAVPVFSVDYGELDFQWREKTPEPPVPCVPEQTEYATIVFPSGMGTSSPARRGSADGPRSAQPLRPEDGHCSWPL
Test: Jurkat-PD-1 Cell Binding High-Content Screening Assay (CBA)
Conditions: Jurkat-hPD-1 cells, PE-labeled PD-L1-Ig 20 nM final; read-out: Jurkat HPD1 PDL1 IC50
In short: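 Jurkat cells overexpressing human PD-1 (8×10^3/well, DMEM + 10% FCS) preincubated with compound 2 h at 37 °C, then PE-labelled human PD-L1-Ig (20 nM final) for 1 h. Cells fixed in paraformaldehyde with Hoechst 33342; bound PD-L1 quantified by high-content imaging.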

Row | IC50 | SMILES
1 | 198 nM | CC(C)C[C@@H]1NC(=O)[C@H](Cc2c[nH]c3ccccc23)NC(=O)[C@H](CC(=O)O)NC(=O)[C@H](Cc2ccc(OCC(=O)O)cc2)NC(=O)[C@H](Cc2ccccc2)NC(=O)CSC[C@@H](C(=O)N[C@@H](CCCN)C(=O)NCCCCCCCCCCC(=O)O)NC(=O)[C@H](CCC(=O)O)NC(=O)[C@H](C(C)C)NC(=O)[C@H](CC(C)C)NC(=O)[C@H](CC(N)=O)NC(=O)[C@@H](CC(C)C)NC(=O)[C@H](C)N(C)C(=O)[C@H](C(C)C)NC(=O)[C@H](Cc2ccc(-c3ccccc3)cc2)NC1=O [Example 1336] ({CH2CO}-FY(Carboxymethyl)DWL[Bip]V[NMeA][dL]NLVEC[Orn][Aun]-OH; thioether N-14)
2 | 9.9 nM | CC(C)C[C@@H]1NC(=O)[C@H](Cc2c[nH]c3ccccc23)NC(=O)[C@H](CC(=O)O)NC(=O)[C@H](Cc2ccc(C(=O)O)cc2)NC(=O)[C@H](Cc2ccc(OCC(=O)O)cc2)NC(=O)CSC[C@@H](C(=O)N[C@@H](CCN)C(=O)NCCCCCCCCCCC(=O)O)NC(=O)[C@H](CCC(N)=O)NC(=O)[C@H](C(C)C)NC(=O)[C@H](CC2CCCCC2)NC(=O)[C@H](CCN)NC(=O)[C@@H](CC(C)C)NC(=O)[C@H](C)N(C)C(=O)[C@H](C(C)C)NC(=O)[C@H](Cc2ccc(-c3ccccc3)cc2)NC1=O [Example 1337] ({CH2CO}-Y(Carboxymethyl)[Phe(4-COOH)]DWL[Bip]V[NMeA][dL][Dab][Cha]VQC[Dab][Aun]-OH; thioether N-14)
3 | 28 nM | CC(C)C[C@@H]1NC(=O)[C@H](Cc2c[nH]c3ccccc23)NC(=O)[C@H](CC(=O)O)NC(=O)[C@H](Cc2ccc(C(=O)O)cc2)NC(=O)[C@H](Cc2ccc(OCC(=O)O)cc2)NC(=O)CSC[C@@H](C(=O)N[C@@H](CCN)C(=O)NCCCCCCCCCCC(=O)O)NC(=O)[C@@H](CCC(N)=O)NC(=O)[C@H](C(C)C)NC(=O)[C@H](CC2CCCCC2)NC(=O)[C@H](CCN)NC(=O)[C@@H](CC(C)C)NC(=O)[C@H](C)N(C)C(=O)[C@H](C(C)C)NC(=O)[C@H](Cc2ccc(-c3ccccc3)cc2)NC1=O [Example 1339] ({CH2CO}-Y(Carboxymethyl)[Phe(4-COOH)]DWL[Bip]V[NMeA][dL][Dab][Cha]V[dQ]C[Dab][Aun]-OH; thioether N-14)
4 | 9.1 nM | CC(C)C[C@@H]1NC(=O)[C@H](Cc2c[nH]c3ccccc23)NC(=O)[C@H](CC(=O)O)NC(=O)[C@H](Cc2ccncc2)NC(=O)[C@H](Cc2ccc(OCC(=O)O)cc2)NC(=O)CSC[C@@H](C(=O)N[C@@H](CCN)C(=O)NCCCCCCCCCCC(=O)O)NC(=O)[C@H](CCC(N)=O)NC(=O)[C@H](C(C)C)NC(=O)[C@H](CC2CCCCC2)NC(=O)[C@H](CCN)NC(=O)[C@@H](CC(C)C)NC(=O)[C@H](C)N(C)C(=O)[C@H](C(C)C)NC(=O)[C@H](Cc2ccc(-c3ccccc3)cc2)NC1=O [Example 1341] ({CH2CO}-Y(Carboxymethyl)[4Pal]DWL[Bip]V[NMeA][dL][Dab][Cha]VQC[Dab][Aun]-OH; thioether N-14)
5 | 18 nM | CC(C)C[C@@H]1NC(=O)[C@H](Cc2c[nH]c3ccccc23)NC(=O)[C@H](CC(=O)O)NC(=O)[C@H](Cc2ccncc2)NC(=O)[C@H](Cc2ccc(OCC(=O)O)cc2)NC(=O)CSC[C@@H](C(=O)N[C@@H](CCCN)C(=O)NCCCCCCCCCCC(=O)O)NC(=O)[C@H](CCC(N)=O)NC(=O)[C@H](C(C)C)NC(=O)[C@H](CC2CCCCC2)NC(=O)[C@H](CCN)NC(=O)[C@@H](CC(C)C)NC(=O)[C@H](C)N(C)C(=O)[C@H](C(C)C)NC(=O)[C@H](Cc2ccc(-c3ccccc3)cc2)NC1=O [Example 1342] ({CH2CO}-Y(Carboxymethyl)[4Pal]DWL[Bip]V[NMeA][dL][Dab][Cha]VQC[Orn][Aun]-OH; thioether N-14)
6 | 39.2 nM | CC(C)C[C@@H]1NC(=O)[C@H](Cc2c[nH]c3ccccc23)NC(=O)[C@H](CC(=O)O)NC(=O)[C@H](Cc2ccncc2)NC(=O)[C@H](Cc2ccc(OCC(=O)O)nc2)NC(=O)CSC[C@@H](C(=O)N[C@@H](CCN)C(=O)NCCCCCCCCCCC(=O)O)NC(=O)[C@H](CCC(N)=O)NC(=O)[C@H](C(C)C)NC(=O)[C@H](CC2CCCCC2)NC(=O)[C@H](CCN)NC(=O)[C@@H](CC(C)C)NC(=O)[C@H](C)N(C)C(=O)[C@H](C(C)C)NC(=O)[C@H](Cc2ccc(-c3ccccc3)cc2)NC1=O [Example 1343] ({CH2CO}-[X8][4Pal]DWL[Bip]V[NMeA][dL][Dab][Cha]VQC[Dab][Aun]-OH; thioether N-14)
7 | 69.5 nM | CC(C)C[C@@H]1NC(=O)[C@H](Cc2c[nH]c3ccccc23)NC(=O)[C@H](CC(=O)O)NC(=O)[C@H](Cc2ccncc2)NC(=O)[C@H](Cc2ccc(OCC(=O)O)cc2)NC(=O)CSC[C@@H](C(=O)N[C@@H](CCCN)C(=O)NCCCCCCCCCCC(=O)O)NC(=O)[C@@H](CCC(N)=O)NC(=O)[C@H](C(C)C)NC(=O)[C@H](CC2CCCCC2)NC(=O)[C@H](CCN)NC(=O)[C@@H](CC(C)C)NC(=O)[C@H](C)N(C)C(=O)[C@H](C(C)C)NC(=O)[C@H](Cc2ccc(-c3ccccc3)cc2)NC1=O [Example 1344] ({CH2CO}-Y(Carboxymethyl)[4Pal]DWL[Bip]V[NMeA][dL][Dab][Cha]V[dQ]C[Orn][Aun]-OH; thioether N-14)
8 | 118 nM | CC(C)C[C@@H]1NC(=O)[C@H](Cc2c[nH]c3ccccc23)NC(=O)[C@H](CC(=O)O)NC(=O)[C@H](Cc2ccc(OCC(=O)O)cc2)NC(=O)[C@H](Cc2ccccc2)NC(=O)CSC[C@@H](C(=O)N[C@@H](CCCN)C(=O)NCCCCCCCCCCC(=O)O)NC(=O)[C@H](CCC(N)=O)NC(=O)[C@H](C(C)C)NC(=O)[C@H](CC(C)C)NC(=O)[C@H](CC(N)=O)NC(=O)[C@@H](CC(C)C)NC(=O)[C@H](C)N(C)C(=O)[C@H](C(C)C)NC(=O)[C@H](Cc2ccc(-c3ccccc3)cc2)NC1=O [Example 1345] ({CH2CO}-FY(Carboxymethyl)DWL[Bip]V[NMeA][dL]NLVQC[Orn][Aun]-OH; thioether N-14)
9 | 113 nM | CC(C)C[C@@H]1NC(=O)[C@H](Cc2c[nH]c3ccccc23)NC(=O)[C@H](CC(=O)O)NC(=O)[C@H](Cc2ccc(OCC(=O)O)cc2)NC(=O)[C@H](Cc2ccccc2)NC(=O)CSC[C@@H](C(=O)N[C@@H](CCN)C(=O)NCCCCCCCCCCC(=O)O)NC(=O)[C@H](CCC(N)=O)NC(=O)[C@H](C(C)C)NC(=O)[C@H](CC(C)C)NC(=O)[C@H](CC(N)=O)NC(=O)[C@@H](CC(C)C)NC(=O)[C@H](C)N(C)C(=O)[C@H](C(C)C)NC(=O)[C@H](Cc2ccc(-c3ccccc3)cc2)NC1=O [Example 1346] ({CH2CO}-FY(Carboxymethyl)DWL[Bip]V[NMeA][dL]NLVQC[Dab][Aun]-OH; thioether N-14)
10 | 301 nM | CC(C)C[C@@H]1NC(=O)[C@H](Cc2c[nH]c3ccccc23)NC(=O)[C@H](CC(=O)O)NC(=O)[C@H](Cc2ccc(OCC(=O)O)cc2)NC(=O)[C@H](Cc2ccccc2)NC(=O)CSC[C@@H](C(=O)N[C@@H](CCCN)C(=O)NCCCCCCCCCCC(=O)O)NC(=O)[C@@H](CCC(N)=O)NC(=O)[C@H](C(C)C)NC(=O)[C@H](CC(C)C)NC(=O)[C@H](CC(N)=O)NC(=O)[C@@H](CC(C)C)NC(=O)[C@H](C)N(C)C(=O)[C@H](C(C)C)NC(=O)[C@H](Cc2ccc(-c3ccccc3)cc2)NC1=O [Example 1347] ({CH2CO}-FY(Carboxymethyl)DWL[Bip]V[NMeA][dL]NLV[dQ]C[Orn][Aun]-OH; thioether N-14)
11 | 39.4 nM | CC(C)C[C@@H]1NC(=O)[C@H](Cc2c[nH]c3ccccc23)NC(=O)[C@H](CC(=O)O)NC(=O)[C@H](Cc2ccc(C(=O)O)cc2)NC(=O)[C@H](Cc2ccc(OCC(=O)O)cc2)NC(=O)CSC[C@@H](C(=O)N[C@@H](CCCCN)C(=O)NCCCCCCCCCCC(=O)O)NC(=O)[C@H](CN)NC(=O)[C@H](C(C)C)NC(=O)[C@H](CC2CCCCC2)NC(=O)[C@H](CCN)NC(=O)[C@@H](CC(C)C)NC(=O)[C@H](C)N(C)C(=O)[C@H](C(C)C)NC(=O)[C@H](Cc2ccc(-c3ccccc3)cc2)NC1=O [Example 1348] ({CH2CO}-Y(Carboxymethyl)[Phe(4-COOH)]DWL[Bip]V[NMeA][dL][Dab][Cha]V[Dap]CK[Aun]-OH; thioether N-14)
12 | 15.8 nM | CC(C)C[C@@H]1NC(=O)[C@H](Cc2c[nH]c3ccccc23)NC(=O)[C@H](CC(=O)O)NC(=O)[C@H](Cc2ccncc2)NC(=O)[C@H](Cc2ccc(OCC(=O)O)cc2)NC(=O)CSC[C@@H](C(=O)N[C@@H](CCCCN)C(=O)NCCCCCCCCCCC(=O)O)NC(=O)[C@H](CN)NC(=O)[C@H](C(C)C)NC(=O)[C@H](CC2CCCCC2)NC(=O)[C@H](CCN)NC(=O)[C@@H](CC(C)C)NC(=O)[C@H](C)N(C)C(=O)[C@H](C(C)C)NC(=O)[C@H](Cc2ccc(-c3ccccc3)cc2)NC1=O [Example 1349] ({CH2CO}-Y(Carboxymethyl)[4Pal]DWL[Bip]V[NMeA][dL][Dab][Cha]V[Dap]CK[Aun]-OH; thioether N-14)
13 | 119 nM | CC(C)C[C@@H]1NC(=O)[C@H](Cc2c[nH]c3ccccc23)NC(=O)[C@H](CC(=O)O)NC(=O)[C@H](Cc2ccc(OCC(=O)O)cc2)NC(=O)[C@H](Cc2ccccc2)NC(=O)CSC[C@@H](C(=O)N[C@@H](CCCCN)C(=O)NCCCCCCCCCCC(=O)O)NC(=O)[C@H](CN)NC(=O)[C@H](C(C)C)NC(=O)[C@H](CC(C)C)NC(=O)[C@H](CC(N)=O)NC(=O)[C@@H](CC(C)C)NC(=O)[C@H](C)N(C)C(=O)[C@H](C(C)C)NC(=O)[C@H](Cc2ccc(-c3ccccc3)cc2)NC1=O [Example 1350] ({CH2CO}-FY(Carboxymethyl)DWL[Bip]V[NMeA][dL]NLV[Dap]CK[Aun]-OH; thioether N-14)
14 | 16.3 nM | CC(C)C[C@H]1NC(=O)[C@H](C)N(C)C(=O)[C@H](CCCNC(N)=O)NC(=O)[C@H](Cc2ccc(-c3ccccc3)cc2)NC(=O)[C@H](C(C)C)NC(=O)[C@H](Cc2c[nH]c3ccccc23)NC(=O)[C@H](CC(=O)O)NC(=O)[C@H](Cc2ccc(OCC(=O)O)cc2)NC(=O)[C@H](CCCNC(=N)N)NC(=O)CSC[C@@H](C(=O)N[C@@H](CCN)C(=O)NCCCCCCCCCCC(=O)O)NC(=O)[C@H]([C@@H](C)O)NC(=O)[C@H](C(C)C)NC(=O)[C@H](CC2CCCCC2)NC(=O)[C@H](CCN)NC1=O [Example 1353] ({CH2CO}-RY(Carboxymethyl)DWV[Bip][Cit][NMeA][dL][Dab][Cha]VTC[Dab][Aun]-OH; thioether N-14)
